{"source": "patent US20140275257A1", "about": "“N-ACETYL CYSTEINE COMPOSITIONS IN THE TREATMENT OF SYSTEMIC LUPUS ERYTHEMATOSUS” (Foundation for the State University of New York, priority 2013, published 2014)", "assay_type_in_all_cases": "in vivo, human", "key": {"[1]": {"system": "SLE patients", "assay": "SLE Disease Activity Index (SLEDAI) in NAC pilot study", "from_the_text": "SLEDAI offers an assessment tool for assessing disease activity in SLE. Twenty-four features that are attributed to lupus are listed, with a weighted score given to any one that is present. The more serious manifestations (such as renal, neurologic, and vasculitis) are weighted more than others (such as cutaneous manifestations). The maximum possible score is 105. (Lam, G. K. W. and Petri, M., “Assessment of systemic lupus erthematosus,” Clin. Exp. Rheumatol., 23 (Supp. 39): S120-S132 (2005)).\n(§1) A complete physical examination of the cardiovascular, respiratory, gastrointestinal, musculoskeletal, neurological systems, skin, head, neck, sinuses, nasal and oral cavities were performed at each visit. SLE disease activity was assessed by using the British Isles Lupus Assessment Group (BILAG) (Isenberg, D. A. et al., “BILAG 2004. Development and initial validation of an updated version of the British Isles Lupus Assessment Group's disease activity index for patients with systemic lupus erythematosus,” Rheumatology 44(7): 902-906 (2005)) and SLE Disease Activity Index (SLEDAI) (Bombardier, C. et al., “Derivation of the SLEDAI. A disease activity index for lupus patients,” Arth. Rheum., 35: 630-640 (1992)). The concurrent use and dosage of prednisone and other medications were documented.\n(§2) Lupus disease activity was measured by SLEDAI and BILAG and fatigue was evaluated by FAC at baseline (visit 1) as well as monthly during a 3-month intervention (visits 2-4) and after a 1-month washout period (visit 5).\n(§3) Overall clinical effectiveness of NAC relative to placebo was analyzed with multilevel modeling as implemented in the STATA routine XTMIXED (from StataCorp, College Station, Tex.), with the three nested levels being drug group, subject within drug group and study visit within subject. All models included fixed effects for drug group, study visit and the drug group by study visit interaction along with random intercepts at each design level. […] The reduction in lupus disease activity SLEDAI scores was greater for the NAC than placebo group, as indicated by a significant visit by drug interaction (z=−2.14, p=0.033). The reduction in BILAG scores was also greater for NAC than placebo group. The overall effect was statistically significant as indicated by a significant visit by drug interaction (z=−2.62, p=0.009). Two tailed paired t-test was used to assess the effects of placebo and of each and all NAC doses on clinical indices and biomarkers recorded on visits 2-5 relative to visit 1; p<0.05 was considered significant. Patients and controls were compared with two-tailed unpaired t-test."}, "[2]": {"system": "GSH in peripheral blood lymphocytes (PBL)", "assay": "HPLC assay of GSH in peripheral blood lymphocytes (PBL) of SLE patients", "experimental": "Reduced glutathione (GSH) was measured by reverse phase ion-exchange HPLC using UV detection at 365 nm, as described in Gergely, P. J. et al., “Mitochondrial hyperpolarization and ATP depletion in patients with systemic lupus erythematosus,” Arth. Rheum., 46: 175-190 (2002); and Hanczko, R. et al., “Prevention of hepatocarcinogenesis and acetaminophen-induced liver failure in transaldolase-deficient mice by N-acetylcysteine,” J. Clin. Invest., 119: 1546-1557 (2009). The disclosures of each of these references are incorporated by reference herein in their entirety.\nGSH was measured in whole blood and peripheral blood lymphocytes (PBL) before (visit 1; 0 h) and after the first NAC/placebo dose (visit 1; 3 h and 6 h) and upon each monthly follow-up visit (visits 2-4: between 9-11 am after having taken the last NAC/placebo capsule 8 pm the night before), and after 1 month wash-out (visit 5). HPLC analysis required ˜0.25 ml of whole blood and 5×10^6 PBL which were obtained from a total of 10 ml of blood collected at each time point."}, "[3]": {"system": "SLE patients", "assay": "British Isles Lupus Assessment Group (BILAG) score in NAC pilot study", "conditions": "for BILAG: all patients treated with NAC, baseline 26.2", "experimental": "The BILAG index is more comprehensive than the SLEDAI, recording clinical disease activity in 8 different organ systems for a total of 101 items. Each item is measured qualitatively by clinical observation (yes/no, improving/same/worse/new) or quantitatively by measuring hematologic and renal lab values. […] Normally, a total score is not calculated. However, it can be converted into a disease activity scale by assigning points to the alphabetical score: A=9, B=3, C=1, D=0, E=0, with a maximum potential score of 72. (Lam, G. K. W. and Petri, M., “Assessment of systemic lupus erthematosus,” Clin. Exp. Rheumatol., 23 (Supp. 39): S120-S132 (2005)). The classical BILAG index was subsequently updated as the BILAG 2004 index. […] Development and initial validation of an updated version of the British Isles Lupus Assessment Group's disease activity index for patients with systemic lupus erythematosus,” Rheumatology, 44: 902-906 (2005). According to the BILAG 2004 index, all features must be attributable to SLE and refer to the last 4 weeks compared with the previous 4 weeks; in some manifestations, it may be difficult to differentiate SLE from other causes as there may not be any specific test and the decision would then lies with the physician's judgement on the balance of probabilities. The term “improvement” is defined as (a) the amount that is sufficient for consideration of reduction in therapy; and (b) that which is present ≧2 weeks of the previous 4 weeks. Scoring for features is indicated as: (0) not present; (1) Improving; (2) Same; (3) Worse; (4) New.\nas §1, §2, §3"}}, "data": [{"smiles": "CC(=O)N[C@@H](CS)C(=O)O", "note": "[NAC, N-acetyl-L-cysteine]", "values": [{"measurement": "patients with significant improvement (SLEDAI)", "setting": "[1]; Dose 1 group, placebo 2 of 9", "value": "3 of 9"}, {"measurement": "patients with significant improvement (SLEDAI)", "setting": "[1]; Dose 2 group, placebo 2 of 9", "value": "4 of 9"}, {"measurement": "patients with significant improvement (SLEDAI)", "setting": "[1]; Dose 3 group, improvements of SLEDAI of 3 or more, p=0.0406 relative to placebo", "value": "5 of 6"}, {"measurement": "effect on SLE disease activity, SLEDAI", "setting": "[1]; NAC dose 1 (1.2 g/day)", "value": "did not influence"}, {"measurement": "SLEDAI", "setting": "[1]; NAC doses 2 and 3 combined, visit 2 (1 month), baseline 5.78, p=0.0007", "value": 3.6}, {"measurement": "SLEDAI", "setting": "[1]; NAC doses 2 and 3 combined, visit 3 (2 months), baseline 5.78, p=0.0009", "value": 4.0}, {"measurement": "SLEDAI", "setting": "[1]; NAC doses 2 and 3 combined, visit 4 (3 months), baseline 5.78, p=0.0030", "value": 4.9}, {"measurement": "SLEDAI", "setting": "[1]; NAC doses 2 and 3 combined, visit 5 (after 1 month washout), baseline 5.78, p=0.0046", "value": 4.4}, {"measurement": "SLEDAI", "setting": "[1]; all patients treated with NAC, after 1-month (visit 2), baseline 5.3, p=0.0013", "value": 3.5}, {"measurement": "SLEDAI", "setting": "[1]; all patients treated with NAC, after 2-month treatment (visit 3), baseline 5.3, p=0.048", "value": 3.7}, {"measurement": "reduction in SLEDAI relative to placebo (multilevel modeling)", "setting": "[1]; visit by drug interaction, XTMIXED z=−2.14, p=0.033", "value": "greater in the NAC than placebo group"}, {"measurement": "GSH in PBL", "setting": "[2]; after 3-month treatment with NAC doses 2 and 3 considered together (visit 4; p=0.027)", "value": "increased"}, {"measurement": "GSH in PBL", "setting": "[2]; after one month washout, NAC dose 3 or doses 2 and 3 combined", "value": "dropped below baseline"}, {"measurement": "GSH in PBL", "setting": "[2]; single NAC dose of 1.2 g, after 6 h (p=0.022)", "value": "increased"}, {"measurement": "GSH in PBL", "setting": "[2]; single NAC dose of 2.4 g, after 3 h (p=0.032) and 6 h (p=0.003)", "value": "increased"}, {"measurement": "effect on SLE disease activity, BILAG", "setting": "[3]; NAC dose 1 (1.2 g/day)", "value": "did not influence"}, {"measurement": "effect on BILAG", "setting": "[3]; NAC dose 2 (2.4 g/day) and dose 3 (4.8 g/day), after 1 month (p=0.029) and 3 months (p=0.0009)", "value": "reduced"}, {"measurement": "effect on BILAG (mixed model analysis)", "setting": "[3]; NAC dosing group 3 (4.8 g/day), XTMIXED z=−2.19, p=0.029", "value": "significant reduction"}, {"measurement": "reduction in BILAG relative to placebo (mixed model analysis)", "setting": "[3]; NAC groups, visit by drug interaction, XTMIXED z=−2.62, p=0.009", "value": "greater"}, {"measurement": "swollen joint count (BILAG component)", "setting": "[3]; after 3-month NAC treatment with dose 3, XTMIXED z=−2.0, p=0.046", "value": "reduced"}, {"measurement": "swollen joint count (BILAG component)", "setting": "[3]; after 3-month NAC treatment, all doses combined, XTMIXED z=−2.2, p=0.028", "value": "reduced"}, {"measurement": "BILAG", "setting": "[3]; after 1 month (visit 2), p=0.0158", "value": 22.3}, {"measurement": "BILAG", "setting": "[3]; after 2 months (visit 3), p=0.0223", "value": 22.2}]}]}
